How the values were obtained:
in vivo [1] = settings: rat, plasma, iv
[2] = Oral bioavailability in rat; assay type: ADME, organism-based; settings: in vivo
in vivo [3] = settings: rat, plasma, po, 10 mg/kg
in vivo [4] = settings: rat, plasma, po
in vivo [5] = settings: rat, plasma, po; remark: listed apart in the source

half-life (in vivo [1]) [min] | bioavailability [2] [%] | Cmax (in vivo [3]) [nM] | Tmax (in vivo [4]) [min] | AUC (in vivo [5]) [ng·h/mL] | Structure (SMILES)
34.2 | 5.7 | 1050 | 6 | 290 | COc1ccc(CN(C)C(=O)NC(C(=O)N[C@@H](Cc2ccccc2)C[C@H](O)[C@H](Cc2ccccc2)NC(=O)OCc2cccnc2)C(C)C)nc1 (stereo not given in full)
16.8 | 0.4 | 180 | 9 | 50 | COc1cncc(CN(C)C(=O)NC(C(=O)N[C@@H](Cc2ccccc2)C[C@H](O)[C@H](Cc2ccccc2)NC(=O)OCc2cccnc2)C(C)C)c1 (stereo not given in full)
12.6 | 6 | 860 | 18 | 190 | Cc1cnc(COC(=O)NC(C(=O)N[C@@H](Cc2ccccc2)C[C@H](O)[C@H](Cc2ccccc2)NC(=O)OCc2cccnc2)C(C)C)cn1 (stereo not given in full)
19.8 | 0.7 | 190 | 6 | 30 | COc1ccc(COC(=O)NC(C(=O)N[C@@H](Cc2ccccc2)C[C@H](O)[C@H](Cc2ccccc2)NC(=O)OCc2cccnc2)C(C)C)cn1 (stereo not given in full)
13.8 | 4.5 | 1030 | 12 | 210 | CC(C)C(NC(=O)OCc1cnccn1)C(=O)N[C@@H](Cc1ccccc1)[C@@H](O)C[C@H](Cc1ccccc1)NC(=O)OCc1cccnc1 (stereo not given in full)
27.6 | 0.7 | 150 | 6 | 20 | CC(C)c1ncc(COC(=O)NC(C(=O)N[C@@H](Cc2ccccc2)C[C@H](O)[C@H](Cc2ccccc2)NC(=O)OCc2cccnc2)C(C)C)s1 (stereo not given in full)
11.4 | 0.5 | 160 | 6 | 10 | CCc1ncc(COC(=O)NC(C(=O)N[C@@H](Cc2ccccc2)C[C@H](O)[C@H](Cc2ccccc2)NC(=O)OCc2cccnc2)C(C)C)s1 (stereo not given in full)
18 | 5.7 | 350 | 12 | 120 | Cc1ncc(COC(=O)NC(C(=O)N[C@@H](Cc2ccccc2)[C@@H](O)C[C@H](Cc2ccccc2)NC(=O)OCc2cccnc2)C(C)C)nc1C (stereo not given in full)

Further lines, the compound ahead of its results:

Structure (SMILES) | half-life (in vivo [1]) [min] | bioavailability [2] [%] | Cmax (in vivo [3]) [nM] | Tmax (in vivo [4]) [min] | AUC (in vivo [5]) [ng·h/mL]
CC(C)c1nc(CN(C)C(=O)NC(C(=O)N[C@@H](Cc2ccccc2)[C@@H](O)C[C@H](Cc2ccccc2)NC(=O)OCc2cccnc2)C(C)C)co1 (stereo not given in full) | 17.4 | 3.3 | 290 | 6 | 90
CC(C)c1nc(COC(=O)NC(C(=O)N[C@@H](Cc2ccccc2)[C@@H](O)C[C@H](Cc2ccccc2)NC(=O)OCc2cccnc2)C(C)C)cs1 (stereo not given in full) | 40.8 | 3 | 470 | 15 | 220
CC(C)c1nc(CN(C)C(=O)NC(C(=O)N[C@@H](Cc2ccccc2)C[C@H](O)[C@H](Cc2ccccc2)NC(=O)OCc2cncs2)C(C)C)cs1 (stereo not given in full) | 72 | 78 | 2620 | 120 | 7750
CC(C)C(NC(=O)N(C)Cc1csc(C2CC2)n1)C(=O)N[C@@H](Cc1ccccc1)C[C@H](O)[C@H](Cc1ccccc1)NC(=O)OCc1cncs1 (stereo not given in full) | 66 | 58 | 6460 | 130 | 21900
CC(C)C(NC(=O)N(C)Cc1cscn1)C(=O)N[C@@H](Cc1ccccc1)C[C@H](O)[C@H](Cc1ccccc1)NC(=O)OCc1cccnc1 (stereo not given in full) | 40.2 | 5.2 | 640 | 6 | 290
CC(C)C(NC(=O)N(C)Cc1csc(C(C)(C)C)n1)C(=O)N[C@@H](Cc1ccccc1)C[C@H](O)[C@H](Cc1ccccc1)NC(=O)OCc1cccnc1 (stereo not given in full) | 17.4 | 5.3 | 380 | 19.8 | 230
CC(NC(=O)N(Cc1csc(C(C)C)n1)C1CC1)C(=O)N[C@@H](Cc1ccccc1)C[C@H](O)[C@H](Cc1ccccc1)NC(=O)OCc1cncs1 (stereo not given in full) | 36.6 | 76 | 5190 | 108 | 12000
